Measurements published in ChEMBL document CHEMBL1150338, “Prediction and identification of drug interactions with the human ATP-binding cassette transporter multidrug-resistance associated protein 2 (MRP2; ABCC2)” (J Med Chem, 2008).

Each compound was assayed against MRP2 (ABCC2) (Homo sapiens, UniProt Q92887) (assay: in vitro). Settings: probe estradiol-17-beta-glucuronide.
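Further: Inside-out membrane vesicles from Sf9 insect cells expressing human MRP2, measuring uptake of the estradiol glucuronide substrate, expressed as percent of untreated control.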
Description: Effect on human MRP2-mediated estradiol-17-beta-glucuronide transport in Sf9 cells inverted membrane vesicles relative to control

Chain of MRP2 (ABCC2) (Q92887 whole entry): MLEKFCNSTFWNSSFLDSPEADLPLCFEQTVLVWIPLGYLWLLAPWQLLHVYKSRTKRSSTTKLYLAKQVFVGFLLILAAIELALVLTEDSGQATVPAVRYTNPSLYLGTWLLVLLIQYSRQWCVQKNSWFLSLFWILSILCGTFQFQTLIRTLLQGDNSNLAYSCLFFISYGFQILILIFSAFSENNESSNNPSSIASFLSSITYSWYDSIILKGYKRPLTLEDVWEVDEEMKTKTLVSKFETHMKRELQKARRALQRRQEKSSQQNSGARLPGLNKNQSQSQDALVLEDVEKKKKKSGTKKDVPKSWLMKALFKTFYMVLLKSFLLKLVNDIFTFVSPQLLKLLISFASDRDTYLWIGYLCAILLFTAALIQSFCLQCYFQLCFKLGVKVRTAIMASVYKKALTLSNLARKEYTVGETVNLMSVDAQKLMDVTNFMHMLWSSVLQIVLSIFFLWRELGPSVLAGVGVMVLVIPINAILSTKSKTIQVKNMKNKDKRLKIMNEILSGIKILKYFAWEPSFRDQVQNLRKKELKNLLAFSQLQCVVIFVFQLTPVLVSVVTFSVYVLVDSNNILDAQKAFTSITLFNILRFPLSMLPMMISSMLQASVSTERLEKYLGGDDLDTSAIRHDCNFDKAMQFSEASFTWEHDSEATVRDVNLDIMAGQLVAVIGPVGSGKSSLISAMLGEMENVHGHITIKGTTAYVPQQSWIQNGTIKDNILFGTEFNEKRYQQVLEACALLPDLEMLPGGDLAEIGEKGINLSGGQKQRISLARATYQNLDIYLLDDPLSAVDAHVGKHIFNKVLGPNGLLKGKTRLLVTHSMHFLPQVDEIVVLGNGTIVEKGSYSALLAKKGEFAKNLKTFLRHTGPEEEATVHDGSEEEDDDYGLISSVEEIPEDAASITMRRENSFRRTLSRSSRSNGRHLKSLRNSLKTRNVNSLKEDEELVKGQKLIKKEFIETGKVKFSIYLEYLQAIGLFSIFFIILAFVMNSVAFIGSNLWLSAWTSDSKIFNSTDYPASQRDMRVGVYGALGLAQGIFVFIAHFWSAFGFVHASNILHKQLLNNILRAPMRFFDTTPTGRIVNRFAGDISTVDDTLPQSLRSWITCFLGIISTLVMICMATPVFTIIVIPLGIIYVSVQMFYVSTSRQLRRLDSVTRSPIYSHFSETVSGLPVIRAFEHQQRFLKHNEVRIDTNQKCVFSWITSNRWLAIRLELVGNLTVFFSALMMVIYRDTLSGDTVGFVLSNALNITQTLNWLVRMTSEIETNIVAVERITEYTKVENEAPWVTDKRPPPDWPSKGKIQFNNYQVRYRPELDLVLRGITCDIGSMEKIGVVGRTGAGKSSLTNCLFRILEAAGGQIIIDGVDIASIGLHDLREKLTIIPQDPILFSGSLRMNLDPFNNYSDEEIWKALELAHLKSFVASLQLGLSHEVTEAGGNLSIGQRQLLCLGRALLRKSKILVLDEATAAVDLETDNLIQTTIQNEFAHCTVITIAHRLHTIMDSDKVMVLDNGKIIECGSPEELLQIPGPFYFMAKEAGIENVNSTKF

Row | SMILES | activity
1 | CC(C)(C)NC(=O)[C@@H]1C[C@@H]2CCCC[C@@H]2CN1C[C@@H](O)[C@H](Cc1ccccc1)NC(=O)[C@H](CC(N)=O)NC(=O)c1ccc2ccccc2n1 | 41%
2 | CC(=O)[C@@]1(O)CC[C@H]2[C@@H]3C[C@H](C)C4=CC(=O)CC[C@]4(C)[C@H]3CC[C@@]21C | 111%
3 | CC1=C(CC(=O)O)c2cc(F)ccc2/C1=C\c1ccc([S+](C)[O-])cc1 (centres undefined) | 151%
4 | CCN(CC)Cc1cc(Nc2ccnc3cc(Cl)ccc23)ccc1O | 60%
5 | CCC[C@@]1(CCc2ccccc2)CC(O)=C([C@H](CC)c2cccc(NS(=O)(=O)c3ccc(C(F)(F)F)cn3)c2)C(=O)O1 | 88%
6 | C[n+]1ccc(-c2ccccc2)cc1 | 72%
7 | CCOc1ccc(-c2nc3cc(-c4nc5cc(N6CCN(C)CC6)ccc5[nH]4)ccc3[nH]2)cc1 | 70%
8 | COc1cc2c(cc1OC)CN(CCc1ccc(NC(=O)c3cccc4c(=O)c5cccc(OC)c5[nH]c34)cc1)CC2 | 39%
9 | COc1ccc(/C=C/C(=O)Nc2ccccc2C(=O)O)cc1OC | 98%
10 | CC(=O)Nc1ccc(S(=O)(=O)Nc2ccc([N+](=O)[O-])cc2)cc1 | 116%
11 | CC(=O)Oc1ccc2c(c1)Oc1cc(OC(C)=O)ccc1C21OC(=O)c2cc(C(=O)O)ccc21 | 7%
12 | O=C(O)[C@H]1O[C@@H](Oc2ccc([N+](=O)[O-])cc2)[C@H](O)[C@@H](O)[C@@H]1O | 99%
13 | Cc1ccc(N(CC(=O)O)CC(=O)O)c(OCCOc2cc(-c3c4cc(Cl)c(=O)cc-4oc4cc(O)c(Cl)cc34)ccc2N(CC(=O)O)CC(=O)O)c1 | 9%
14 | COc1ccc(CCN(C)CCCC(C#N)(c2ccc(OC)c(OC)c2)C(C)C)cc1OC (centres undefined) | 56%
15 | CC(C)(C)NC(=O)[C@@H]1CN(Cc2cccnc2)CCN1C[C@@H](O)CC(Cc1ccccc1)C(=O)N[C@H]1c2ccccc2C[C@H]1O (single isomer, unassigned) | 93%
16 | C#CC1(O)CC[C@H]2[C@@H]3CCc4cc(O)ccc4[C@H]3CC[C@@]21C (single isomer, unassigned) [ETHINYL ESTRADIOL] | 53%

Row | SMILES | activity
17 | O=C1c2c(O)cc(O)cc2O[C@H](c2ccc(O)c(O)c2)[C@H]1O [(+)-TAXIFOLIN] | 108%
18 | CC(C)N(CC[C@](C(N)=O)(c1ccccc1)c1ccccn1)C(C)C [(S)-DISOPYRAMIDE] | 104%
19 | CC(=O)Nc1ccc(O[C@@H]2O[C@H](C(=O)O)[C@@H](O)[C@H](O)[C@H]2O)cc1 [ACETAMINOPHEN GLUCURONIDE] | 150%
20 | Nc1ncnc2c1ncn2CCOCP(=O)(O)O [ADEFOVIR] | 96%
21 | NC12CC3CC(CC(C3)C1)C2 [AMANTADINE] | 101%
22 | N=C(N)NC(=O)c1nc(Cl)c(N)nc1N [AMILORIDE] | 82%
23 | Nc1ccc(C(=O)NCC(=O)O)cc1 [AMINOHIPPURIC ACID] | 46%
24 | CN(C)CCC=C1c2ccccc2CCc2ccccc21 [AMITRIPTYLINE] | 51%
25 | Cc1cc(=O)n(-c2ccccc2)n1C [ANTIPYRINE] | 84%
26 | O=c1cc(-c2ccc(O)cc2)oc2cc(O)cc(O)c12 [APIGENIN] | 94%
27 | COc1ccc(CCN2CCC(Nc3nc4ccccc4n3Cc3ccc(F)cc3)CC2)cc1 [ASTEMIZOLE] | 36%
28 | CNCC[C@@H](Oc1ccccc1C)c1ccccc1 [ATOMOXETINE] | 109%
29 | CN1[C@@H]2CC[C@H]1C[C@@H](OC(=O)C(CO)c1ccccc1)C2 (some centres undefined) [ATROPINE] | 59%
30 | O=C(O)[C@H]1O[C@@H](Oc2cc3oc(-c4ccccc4)cc(=O)c3c(O)c2O)[C@H](O)[C@@H](O)[C@@H]1O [BAICALIN] | 34%
31 | CCc1oc2ccccc2c1C(=O)c1cc(Br)c(O)c(Br)c1 [BENZBROMARONE] | 11%
32 | COc1ccc(-c2coc3cc(O)cc(O)c3c2=O)cc1 [BIOCHANIN] | 84%

Same assay, conditions: sf9

Row | SMILES | activity
33 | COc1ccc2c3c([nH]c2c1)[C@H](CC(C)C)N1C(=O)[C@H](CCC(=O)OC(C)(C)C)NC(=O)[C@@H]1C3 | 73%
34 | CCCCc1oc2ccccc2c1C(=O)c1cc(I)c(OCCN(CC)CC)c(I)c1 [AMIODARONE] | 66%
